Assay results reported in PubChem BioAssay (NCI).
Values joined by “and” are separate entries in the source; they are usually repeats but may differ in a detail not shown here. Equal values may be shown once.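 48-hour exposure; five concentrations; linearly interpolated endpoints. GI50 marks 50% less growth. TGI: concentration producing complete growth inhibition.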

Experiments:
Experiment in all cases: inhibition of tumour cell growth, NCI panel, 48 h
MALME-3M melanoma = system: MALME-3M melanoma
SNB-75 CNS = system: SNB-75 CNS
NCI-H522 lung = system: NCI-H522 lung
HCT-15 colon = system: HCT-15 colon
SR leukemia = system: SR leukemia
HS 578T breast = system: HS 578T breast
COLO 205 colon = system: COLO 205 colon
A549 NSCLC = system: A549 NSCLC
SF-539 CNS = system: SF-539 CNS
UACC-62 melanoma = system: UACC-62 melanoma

## O=c1[nH]c2ccccc2nc1-c1c[nH]c2ccccc12
MALME-3M melanoma
  GI50: 39800 nM
  TGI: > 100000 nM
SNB-75 CNS
  GI50: 2930 nM
  TGI: > 100000 nM
NCI-H522 lung
  GI50: > 100000 nM
  TGI: > 100000 nM
HCT-15 colon
  GI50: > 100000 nM
  TGI: > 100000 nM
SR leukemia
  GI50: > 100000 nM
  TGI: > 100000 nM
HS 578T breast
  GI50: 6830 nM
  TGI: > 100000 nM
COLO 205 colon
  GI50: > 100000 nM
  TGI: > 100000 nM
A549 NSCLC
  GI50: > 100000 nM
  TGI: > 100000 nM
SF-539 CNS
  GI50: > 100000 nM
  TGI: > 100000 nM

## C[C@]12CC[C@H]3[C@@H](CCC4=CC(=O)CC[C@@H]43)[C@@H]1CC[C@@H]2OC(=O)CCc1ccccc1
MALME-3M melanoma
  GI50: 17000 nM
  TGI: 34400 nM
SNB-75 CNS
  GI50: 29000 nM
  TGI: > 100000 nM
NCI-H522 lung
  GI50: 19400 nM
  TGI: 41700 nM
HCT-15 colon
  GI50: 24600 nM
  TGI: > 89700 nM
SR leukemia
  GI50: 11200 nM
  TGI: > 53400 nM
HS 578T breast
  GI50: 4000 nM
  TGI: 21800 nM
COLO 205 colon
  GI50: 16300 nM
  TGI: 40100 nM
UACC-62 melanoma
  GI50: 9640 nM
  TGI: 35700 nM
A549 NSCLC
  GI50: 25100 nM
  TGI: > 73700 nM
SF-539 CNS
  GI50: 16300 nM
  TGI: 30500 nM

## CC1=C(CCC(C)N(C)Cc2ccc(OCCCN3CCCC3)cc2)C(C)(C)CCC1 (stereo not drawn)
MALME-3M melanoma
  GI50: 1670 nM
  TGI: 3230 nM
SNB-75 CNS
  GI50: 1580 nM
  TGI: 3920 nM
NCI-H522 lung
  GI50: 2330 nM
  TGI: 4990 nM
HCT-15 colon
  GI50: 1420 nM
  TGI: 4800 nM
SR leukemia
  GI50: 744 nM
  TGI: 3890 nM
HS 578T breast
  GI50: 2530 nM
  TGI: 9730 nM
COLO 205 colon
  GI50: 1560 nM
  TGI: 3420 nM
UACC-62 melanoma
  GI50: 2110 nM
  TGI: 4170 nM
A549 NSCLC
  GI50: 6480 nM
  TGI: 20500 nM
SF-539 CNS
  GI50: 1660 nM
  TGI: 3280 nM

## O=C(/C(=C/c1ccccc1)CN1CCCCC1)c1ccccc1
MALME-3M melanoma
  GI50: 1160 nM
  TGI: 3580 nM
SNB-75 CNS
  GI50: 3760 nM
  TGI: 17800 nM
NCI-H522 lung
  GI50: 365 nM
  TGI: 884 nM
HCT-15 colon
  GI50: 617 nM
  TGI: 3340 nM
SR leukemia
  GI50: 271 nM
  TGI: 5780 nM
HS 578T breast
  GI50: 5030 nM
  TGI: 65600 nM
COLO 205 colon
  GI50: 447 nM
  TGI: 1410 nM
UACC-62 melanoma
  GI50: 1420 nM
  TGI: 4360 nM
A549 NSCLC
  GI50: 1840 nM
  TGI: 3920 nM
SF-539 CNS
  GI50: 2800 nM
  TGI: 10100 nM

## CCCn1c(C)nc2c1C(=O)c1ccccc1C2=O
MALME-3M melanoma
  GI50: 2710 nM
  TGI: 9350 nM
SNB-75 CNS
  GI50: 55400 nM
  TGI: > 100000 nM
NCI-H522 lung
  GI50: 18700 nM
  TGI: 75100 nM
HCT-15 colon
  GI50: 14200 nM
  TGI: > 100000 nM
SR leukemia
  GI50: 15100 nM
  TGI: 79400 nM
HS 578T breast
  GI50: 17800 nM
  TGI: > 100000 nM
COLO 205 colon
  GI50: 37600 nM
  TGI: > 100000 nM
UACC-62 melanoma
  GI50: 22100 nM
  TGI: 67700 nM
A549 NSCLC
  GI50: 28500 nM
  TGI: > 100000 nM
SF-539 CNS
  GI50: 27100 nM
  TGI: > 100000 nM

## COC(=O)C(Cc1ccccc1)NC(=O)NC(=O)NC(=O)CI (stereo not drawn)
MALME-3M melanoma
  GI50: 1550 nM
  TGI: 3340 nM
SNB-75 CNS
  GI50: 16200 nM
  TGI: 36700 nM
NCI-H522 lung
  GI50: 1610 nM
  TGI: 3380 nM
HCT-15 colon
  GI50: 1660 nM
  TGI: 3130 nM
SR leukemia
  GI50: 1200 nM
  TGI: 3670 nM
HS 578T breast
  GI50: 34300 nM
  TGI: > 100000 nM
COLO 205 colon
  GI50: 1830 nM
  TGI: 3560 nM
UACC-62 melanoma
  GI50: 12300 nM
  TGI: 26000 nM
A549 NSCLC
  GI50: 20200 nM
  TGI: 38900 nM
SF-539 CNS
  GI50: 11800 nM
  TGI: 24900 nM

## O=C(c1ccccc1)C(CN1CCOCC1)c1ccccc1 (stereo not drawn)
MALME-3M melanoma
  GI50: 1790 nM
  TGI: 4030 nM
SNB-75 CNS
  GI50: 2290 nM
  TGI: 12000 nM
NCI-H522 lung
  GI50: 255 nM
  TGI: 995 nM
HCT-15 colon
  GI50: 641 nM
  TGI: 2210 nM
SR leukemia
  GI50: 1020 nM
  TGI: 4450 nM
HS 578T breast
  GI50: 1770 nM
  TGI: 8370 nM
COLO 205 colon
  GI50: 1760 nM
  TGI: 3320 nM
UACC-62 melanoma
  GI50: 1710 nM
  TGI: 4210 nM
A549 NSCLC
  GI50: 3940 nM
  TGI: 14900 nM
SF-539 CNS
  GI50: 2110 nM
  TGI: 4470 nM

## Cc1ccc(C(=O)Nc2ccc(CN3CCN(C)CC3)c(C(F)(F)F)c2)cc1C#Cc1cnc2cccnn12
MALME-3M melanoma
  GI50: 474 nM
  TGI: 2860 nM
SNB-75 CNS
  GI50: 377 nM and 1020 nM
  TGI: 1660 nM and 3030 nM
NCI-H522 lung
  GI50: 319 nM and 538 nM
  TGI: 1280 nM and 3260 nM
HCT-15 colon
  GI50: 313 nM and 501 nM
  TGI: 1270 nM and 3420 nM
SR leukemia
  GI50: 447 nM and 383 nM
  TGI: 2110 nM and 1980 nM
HS 578T breast
  GI50: 364 nM and 544 nM
  TGI: 2520 nM
COLO 205 colon
  GI50: 328 nM and 879 nM
  TGI: 1240 nM and 3010 nM
UACC-62 melanoma
  GI50: 306 nM and 1060 nM
  TGI: 1520 nM
A549 NSCLC
  GI50: 377 nM and 1310 nM
  TGI: 1550 nM and 3790 nM
SF-539 CNS
  GI50: 255 nM and 669 nM
  TGI: 722 nM and 2180 nM

## C=CC(=O)N(C)[C@H]1C[C@H]2OC(C)(C1OC)n1c3ccccc3c3c4c(c5c6ccccc6n2c5c31)C(=O)NC4 (stereo partly drawn)
MALME-3M melanoma
  GI50: 70.6 nM
  TGI: 449 nM
SNB-75 CNS
  GI50: 13.7 nM
  TGI: 76.6 nM
NCI-H522 lung
  GI50: 83.9 nM
  TGI: 565 nM
HCT-15 colon
  GI50: 99 nM
  TGI: 644 nM
SR leukemia
  GI50: 98.3 nM
  TGI: 776 nM
HS 578T breast
  GI50: 88.7 nM
  TGI: 600 nM
COLO 205 colon
  GI50: 83.1 nM
  TGI: 253 nM
UACC-62 melanoma
  GI50: 130 nM
  TGI: 835 nM
A549 NSCLC
  GI50: 93.8 nM
  TGI: > 20000 nM
SF-539 CNS
  GI50: 83 nM
  TGI: 379 nM

## CCN=C1C=CC(=C(c2ccc(N)cc2)c2ccc(N(CC)CC)c(C)c2)C=C1
MALME-3M melanoma
  GI50: 329 nM
  TGI: 1230 nM
SNB-75 CNS
  GI50: 204 nM
  TGI: 650 nM
NCI-H522 lung
  GI50: 310 nM
  TGI: 1620 nM
HCT-15 colon
  GI50: 917 nM
  TGI: 4770 nM
SR leukemia
  GI50: 313 nM
  TGI: 1240 nM
HS 578T breast
  GI50: 278 nM
  TGI: 5100 nM
COLO 205 colon
  GI50: 185 nM
  TGI: 400 nM
UACC-62 melanoma
  GI50: 248 nM
  TGI: 866 nM
A549 NSCLC
  GI50: 337 nM
  TGI: 12900 nM
SF-539 CNS
  GI50: 340 nM
  TGI: 1360 nM

## CN1CCN(Cc2ccc(NC(=O)c3cncc(C#Cc4cnc(N)c5ccncc45)c3)cc2C(F)(F)F)CC1
MALME-3M melanoma
  GI50: 106 nM
  TGI: 404 nM
SNB-75 CNS
  GI50: 898 nM
  TGI: 5080 nM
NCI-H522 lung
  GI50: 897 nM
  TGI: 8510 nM
HCT-15 colon
  GI50: 1420 nM
  TGI: 5840 nM
SR leukemia
  GI50: 567 nM
  TGI: > 24500 nM
HS 578T breast
  GI50: 286 nM
  TGI: 1980 nM
COLO 205 colon
  GI50: 181 nM
  TGI: 1950 nM
UACC-62 melanoma
  GI50: 227 nM
  TGI: 1860 nM
A549 NSCLC
  GI50: 1380 nM
  TGI: 6920 nM
SF-539 CNS
  GI50: 484 nM
  TGI: 2030 nM

## COC(=O)Cn1c2c(c3c(O)cccc31)C(=O)c1ccccc1-2
MALME-3M melanoma
  GI50: > 100000 nM
  TGI: > 100000 nM
SNB-75 CNS
  GI50: > 100000 nM
  TGI: > 100000 nM
NCI-H522 lung
  GI50: > 100000 nM
  TGI: > 100000 nM
HCT-15 colon
  GI50: > 100000 nM
  TGI: > 100000 nM
SR leukemia
  GI50: 28800 nM
  TGI: > 100000 nM
HS 578T breast
  GI50: > 100000 nM
  TGI: > 100000 nM
COLO 205 colon
  GI50: > 100000 nM
  TGI: > 100000 nM
UACC-62 melanoma
  GI50: > 100000 nM
  TGI: > 100000 nM
A549 NSCLC
  GI50: > 100000 nM
  TGI: > 100000 nM
SF-539 CNS
  GI50: > 100000 nM
  TGI: > 100000 nM
